Data on three molecules can be found in patent publication US5994349A, “3-carboalkoxy-2, 3-dihydro-1H-phenothiazin-4[10H]-one derivatives” (priority 1997, dated 1999).

Holding throughout (format): in vivo, male Carworth Farms No. 1 (CF1) mice
In series [1] the test system is maximal electroshock seizures. In words: maximal electroshock (MES) test, Phase I, mice ip. The settings on record: for responders at 30 mg/kg / responders at 100 mg/kg / responders at 300 mg/kg: Mus musculus. The method, then:
(§1) Initial evaluations for anticonvulsant activity include phases I, VIA and VIB test procedures. These tests are performed intraperitoneally in male Carworth Farms No. 1 (CF1) mice, weighing 18-25 g (Phase I) or orally in male Sprague-Dawley rats, weighing 100-150 g (Phases VIA and VIB). The evaluation is based on three tests: maximal electroshock (MES), subcutaneous (scMet), and the rotorod test for neurological toxicity (Tox). (a) Anticonvulsant Screening Project, Antiepileptic Drug Development Program, National Institutes of Health, DHEW Publ (NIH)(U.S.) 1978, NIH 78-1093. (b) Porter, R. J.; Cereghino, J. J.; Gladding, G. D.; Hessie, B. J.; Kupferberg, H. J.; Scoville, B.; White, B. G. Antiepileptic drug development program. Cleveland Clin. Q. 1984, 51, 293-305. (c) Krall, R. L.; Penry, J. K.; White, B. G.; Kupferberg, H. J.; Swinyard, E. A. Antiepileptic drug development: II. Anticonvulsant drug screening. Epilepsia 1978, 19, 400-428. In the MES test, maximal electroshock seizures are elicited with a 60- cycle alternating current of 50 mA intensity (5-7 times that necessary to elicit minimal electroshock seizures) delivered via corneal electrodes for 0.2 seconds. A drop of 0.9% saline is placed on the eye prior to application of the electrodes in order to […]. Abolition of the hind limb tonic extension component of the seizure is defined as protection and results are expressed as the number of animals protected/the number of animals tested.
In phase I, compounds are suspended in 0.5% aqueous methylcellulose and are administered intraperitoneally at three dosage levels (30, 100, and 300 mg/kg) with anticonvulsant activity and motor impairment noted 30 min and 4 h (and in some cases 2 h and 6 h) after administration.
On the technique in general: Protection in the maximal electroshock model is a classic sign of anticonvulsant action.

The next series has as its system neurotoxicity (rotorod). Briefly: rotorod test for neurological toxicity (Tox), Phase I, mice ip. The method, then:
as §1
The rotorod test is used to evaluate neurotoxicity. The animal is placed on a 1 inch diameter knurled plastic rod rotating at 6 rpm. Normal mice can remain on a rod rotating at this speed indefinitely. […]
A general note: In the rotarod test animals must keep their balance on a rotating rod.

The subject of series [2] is pentylenetetrazol seizures. In words: subcutaneous pentylenetetrazol (scMet) test, Phase I, mice ip. Particulars: Mus musculus, mice ip. The method, then:
as §1
In the sc MET test, eighty-five mg/kg of pentylenetetrazol, which induces seizures in more than 95% of mice, is administered as a 0.5% solution subcutaneously in the posterior midline. The animal is observed for 30 minutes. Failure to observe even a threshold seizure (a single episode of clonic spasms of at least 5 seconds duration) is defined as protection and the results are expressed as the number of animals protected/ the number of animals tested. […]

[3] abbreviates: 100 mg/kg, 4 h, read-out: MES 4 h (converted).
Setting [4] is: 4 h, read-out: MES 4 h (converted).
Where [5] appears, read: 0.5 h, 30 min, read-out: MES 30 min (converted).
Setting [6] is: 0.5 h, 100 mg/kg, 30 min, read-out: MES 30 min (converted).
[7] abbreviates: 0.5 h, 30 min, read-out: scMet 30 min.
Where [8] appears, read: 0.5 h, 30 min, read-out: scMet 30 min (converted).
[9] abbreviates: 4 h, read-out: scMet 4 h (converted).

Where two headings read alike, the source gives them in different places.

Consider `COC(=O)[C@@H]1C(=O)C2=C(C[C@H]1C)Nc1ccc(C)cc1S2` (relative stereo) [Compound 4h], for which the “MES animals protected at 0.25 h” value in series [1] (100 mg/kg, 0.25 h) is on record as 2/3. The responders at 30 mg/kg in series [1] (4 h, read-out: MES 4 h) is 0%; in series [1] (setting [5]) it was 0%; in series [2] (setting [7]), 0%; in series [2] (4 h, read-out: scMet 4 h), 0%. Besides, the responders at 100 mg/kg in series [1] (setting [3]) is 33.3%; in series [1] (setting [6]), 0%; in series [2] (setting [7]), 0%; in series [2] (4 h, read-out: scMet 4 h), 0%. The responders at 300 mg/kg in series [1] (setting [4]) was 100%; in series [1] (setting [5]), 100%; in series [2] (setting [8]), 0%. For the same molecule, the “Tox 30 min” value in the series on neurotoxicity (rotorod) (30 mg/kg) is 0/4; in the series with neurotoxicity (rotorod) (100 mg/kg) it was 0/8; in the series on neurotoxicity (rotorod) (300 mg/kg), 0/3. Moreover, the entries for the “Tox 4 h” value in the series with neurotoxicity (rotorod) (30 mg/kg), with neurotoxicity (rotorod) (100 mg/kg) and in the series on neurotoxicity (rotorod) (300 mg/kg) were 0/2, 0/4 and 0/1, respectively.

In the case of `C[C@@H]1CC2=C(Sc3ccccc3N2)C(=O)[C@H]1C(=O)OC(C)(C)C` (relative stereo) [Compound 4c, 3-Carbo-ter-butoxy-2-methyl-2,3-dihydro-1H-phenothiazin-4[10H]-one], in series [1] (100 mg/kg, 2 h), the “MES animals protected at 2 h” value is listed as 1/3. Further, the “MES animals protected at 6 h” value in series [1] (100 mg/kg, 6 h) is reported as 0/3. For the same molecule, the responders at 30 mg/kg in series [1] (4 h, read-out: MES 4 h) is 0%; in series [1] (setting [5]), 0%; in series [2] (setting [7]), 0%; in series [2] (4 h, read-out: scMet 4 h), 0%. Further, the responders at 100 mg/kg in series [1] (setting [3]) was 33.3%; in series [1] (setting [6]) it was 0%; in series [2] (setting [7]) it was 0%; in series [2] (4 h, read-out: scMet 4 h), 0%. The responders at 300 mg/kg in series [1] (setting [4]) is 100%; in series [1] (setting [5]) it was 0%; in series [2] (setting [8]) it was 0%; in series [2] (setting [9]) it was 0%. Further, the “Tox 30 min” value was 0/4 in the series with neurotoxicity (rotorod) (30 mg/kg), 0/8 in the series on neurotoxicity (rotorod) (100 mg/kg) and 0/4 in the series with neurotoxicity (rotorod) (300 mg/kg). For the same molecule, the “Tox 4 h” value with neurotoxicity (rotorod) (30 mg/kg) was 0/2; in the series with neurotoxicity (rotorod) (100 mg/kg), 0/4; in the series with neurotoxicity (rotorod) (300 mg/kg) it was 0/2. The “toxic at 2 h” value with neurotoxicity (rotorod) (100 mg/kg, 2 h) is listed as 1/3. The “toxic at 6 h” value with neurotoxicity (rotorod) (100 mg/kg, 6 h) is 0/3.

As to `C[C@@H]1CC2=C(Sc3cc(Cl)ccc3N2)C(=O)[C@H]1C(=O)OC(C)(C)C` (relative stereo) [Compound 4g, 7-Chloro-3-carbo-ter-butoxy-2-methyl-2,3-dihydro-1H-phenothiazin-4[10H]-one], the responders at 30 mg/kg is 0% in series [1] (4 h, read-out: MES 4 h); 0% in series [1] (setting [5]); 0% in series [2] (setting [7]); 0% in series [2] (4 h, read-out: scMet 4 h). Also, the responders at 100 mg/kg was 33.3% in series [1] (setting [3]); 0% in series [1] (setting [6]); 0% in series [2] (setting [7]); 0% in series [2] (4 h, read-out: scMet 4 h). In addition, the responders at 300 mg/kg in series [1] (setting [4]) was 100%; in series [1] (setting [5]), 0%; in series [2] (setting [8]) it was 0%; in series [2] (setting [9]), 0%. Besides, the “Tox 30 min” value in the series with neurotoxicity (rotorod) (30 mg/kg) is on record as 0/4; in the series with neurotoxicity (rotorod) (100 mg/kg), 0/8; in the series with neurotoxicity (rotorod) (300 mg/kg), 0/4. Besides, the “Tox 4 h” value is given as 0/2 with neurotoxicity (rotorod) (30 mg/kg), 0/4 in the series on neurotoxicity (rotorod) (100 mg/kg) and 0/2 with neurotoxicity (rotorod) (300 mg/kg).
